Experimental data published in PMC6884575, “Suppression of FOXM1 activities and breast cancer growth in vitro and in vivo by a new class of compounds” (NPJ Breast Cancer, 2019).
Each block holds one compound with its values, some of them ahead of it.

Columns and labels:
[1] = Pharmacokinetics in mice after single s.c. or oral dose; assay type: in vivo, female CD1 mice; settings: for AUC / Cmax / half-life: female, CD1, mouse, 60 mg/kg, single dose, plasma
FOXM1 [2] = molecular target: T1, FOXM1 (Homo sapiens, UniProt Q08050); assay: tr-FRET competitive binding assay with Fl-NB-72 probe; design: we attached a terbium donor to purified, full length FOXM1 through a streptavidin-biotin linker; settings: calculated from IC50 values; Supplementary Table 1; read-out: Ki, affinity for binding to FOXM1 protein
T1 sequence (Q08050 1-763): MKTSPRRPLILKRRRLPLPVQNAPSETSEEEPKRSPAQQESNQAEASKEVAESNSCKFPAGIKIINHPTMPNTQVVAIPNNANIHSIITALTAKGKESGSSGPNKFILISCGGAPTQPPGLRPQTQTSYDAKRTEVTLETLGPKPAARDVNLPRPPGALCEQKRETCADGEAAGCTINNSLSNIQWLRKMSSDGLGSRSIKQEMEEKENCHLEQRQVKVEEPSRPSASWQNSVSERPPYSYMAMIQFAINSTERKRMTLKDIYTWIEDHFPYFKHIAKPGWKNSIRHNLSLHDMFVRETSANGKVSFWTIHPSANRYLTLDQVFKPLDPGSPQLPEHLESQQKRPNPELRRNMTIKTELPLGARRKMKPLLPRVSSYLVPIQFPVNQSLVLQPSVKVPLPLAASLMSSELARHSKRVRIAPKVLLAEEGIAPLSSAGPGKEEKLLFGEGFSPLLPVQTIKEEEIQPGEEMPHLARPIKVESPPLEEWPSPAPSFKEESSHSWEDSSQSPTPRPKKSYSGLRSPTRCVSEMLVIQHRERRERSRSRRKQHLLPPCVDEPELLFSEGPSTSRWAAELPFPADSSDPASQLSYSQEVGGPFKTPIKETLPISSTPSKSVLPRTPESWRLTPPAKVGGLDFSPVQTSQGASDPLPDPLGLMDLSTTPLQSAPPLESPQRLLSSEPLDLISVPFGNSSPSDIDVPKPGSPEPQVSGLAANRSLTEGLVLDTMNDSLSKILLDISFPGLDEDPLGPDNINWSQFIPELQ
Procedure: Competitive binding assays of compound binding to FOXM1 by tr-FRET were done in FRET buffer (20 mM Tris, pH 7.5, 50 mM NaCl, 0.01% NP-40 detergent, 10% glycerol) with 0.3 mg/ml ovalbumin and 0.1 mM butylated hydroxy-anisole added fresh daily. Solutions of the protein, fluorescent probe and compound dilutions were prepared at 3× concentrations, the final dilution taking place as they were mixed together in equal portions on the microtiter plate.
Final concentrations were 10^−5 M to 10^−9 M, with the last point being buffer only, no compound. Fluorescein-NB-72 (Fl-NB- 72) was prepared at 1 mM in DMF and stored at −20 °C. It was diluted into FRET buffer to give 100 nM in the assay. Incubations were done in duplicate on black Molecular Devices 96-well microtiter plates. 5 μl of Fl-NB-72 and 5 μl of the compound dilutions, were mixed together on the plate. To this was added 5 µl biotin-FoxM1 and incubated in the dark at room temperature, for 1 h. […] To correct for background signals, biotin-FOXM1 was omitted, and diffusion-enhanced FRET incubations were done in duplicate on black Molecular Devices 96-well microtiter plates. Five microliter of Fl-NB-72 and 5 μl of the compound solutions were mixed together and then 5 µl of FRET buffer plus SaTb was added, mixed and incubated in the dark at room temperature, for 1 h. The tr-FRET signals measured as above were subtracted as a background from the first incubations that contained biotin-FOXM1. Graphs were prepared using Graph Pad/Prism 4.

FOXM1 [3] = molecular target: T1, FOXM1; assay: Intracellular localization of FOXM1 (immunofluorescence, nuclear/cytoplasmic fractionation); assay type: cell-based; design: endogenous in cells; host or cells: MDA-MB-231, MCF7; settings: 24 h, Western blot of nuclear and cytoplasmic extracts
Procedure: (§1) In some cases, treatments with compound were done in the presence of the proteasome inhibitor MG132 (Calbiochem) as described in the figure legend. […] Band intensities were analyzed with Licor Odyssey 2.1 software. All blots shown together derive from the same experiment and were processed in parallel. Full uncropped images of blots are shown as supplementary figures in the Supplementary Information file. Molecular weight markers were Rainbow markers from GE Healthcare (38–225 kDa) or Precision Plus Dual Color Markers from Biorad (37–250 kDa).

MCF7 cells = assay: RNA-Seq gene regulation in MCF7 cells; assay type: cell-based, human; settings: for genes regulated more than 2-fold (Venn diagram): MCF7, 9 h treatment, p < 0.05, FDI-6 20 µM
Procedure: (§2) For gene expression analysis, total RNA was extracted from cells using Trizol reagent and further cleaned using the Turbo DNase and RNAqueous kits (ThermoFisher). Cells were treated with Veh (0.1% EtOH), or with the compounds indicated for 9 h or 24 h. Once the sample quality and replicate reproducibility were verified, samples from each group were subjected to sequencing. RNA at a concentration of 100 ng/µl in nuclease-free water was used for library construction. cDNA libraries were prepared with the mRNA-TruSeq Kit (Illumina, Inc.). In brief, the poly-A containing mRNA was purified from total RNA, the RNA was fragmented, double-stranded cDNA was generated from fragmented RNA, and adapters were ligated to the ends.
The paired-end read data from the HiSeq 4000 were processed and analyzed through a series of steps. Base calling and de-multiplexing of samples within each lane were done with Casava 1.8.2. The RNA sequences were prepared with Illumina’s TruSeq Stranded mRNAseq Sample Prep kit. Reads were trimmed of adapters and low expression data using Trimmomatic version 0.38.[42] The STAR alignment tool version 2.5.3a was used to align the sequenced reads to the GRCh37 human genome from Ensembl.[43] Gene counts were calculated using subread version 1.5.2.[44],[45] The edgeR Bioconductor package in R was used for normalization and differential expression analysis. Default normalization methods were used, specifically trimmed mean of M values or TMM was used to calculate the normalized expression values. This method calculates the weighted trimmed mean of the log expression ratios in a gene-wise fashion.[46],[47] We considered genes with fold-change > 2 and p-value < 0.05 as statistically significant, differentially expressed.

[4] = test system: FOXM1 target gene expression in MCF7 cells; assay: FOXM1 target gene expression by qRT-PCR; assay type: cell-based, human; settings: MCF7, 24 h, compound at its IC50 for proliferation
Procedure: Total RNA was isolated using TRIzol (Invitrogen) and reverse transcribed using […] reverse transcriptase (New England BioLabs). Real-time PCR was performed using SYBRgreen PCR Master Mix (Quantabio) as described.[15] Relative mRNA levels of genes were normalized to the housekeeping gene 36B4, and fold-change calculated relative to the vehicle treated samples. Results are the average ± SD from at least two independent experiments carried out in triplicate. Primer sequences for the genes studied were obtained from the Harvard Primer Bank. Sequences are available on their website.

FOXM1 [5] = molecular target: T1, FOXM1; assay: Cellular FOXM1 protein level by Western blot; assay type: cell-based; design: endogenous in cells; host or cells: MDA-MB-231, MCF7; settings: MDA-MB-231 or MCF7 cells over time; NB-55 5/8 µM, NB-73 1.5/4 µM, NB-115 4 µM, FDI-6 8 µM
Procedure: as §1, with “For Western blot analysis, whole-cell extracts were prepared using 1X RIPA lysis buffer (Thermo Fisher) supplemented with 1X protease inhibitor cocktail (Millipore Sigma). […] In some” for “In some”

[6] = test system: human breast cancer cell lines (DT22, MCF7, T47D, BT474, MDA-MB-453, MDA-MB-468, MDA-MB-231); assay: Cell proliferation (WST-1) in panel of breast cancer cell lines; assay type: cell-based; settings: cells in culture
Procedure: WST-1 assay (Roche, Basel, Switzerland) was used to quantify cell viability as described.[38] Absorbance was measured at 450 nm using a VICTOR X5 PerkinElmer 2030 Multilabel Plate Reader. All assays were performed in triplicate and analyzed using Graph Pad Prism 8.0.

MDA-MB-231 cells [7] = assay: Cell cycle analysis by flow cytometry; assay type: cell-based, human; settings: synchronized, released 24 h, 1.5, 3.0, 4.5 µM
Procedure: Cells were synchronized by double thymidine block prior to cell cycle analysis by Propidium Iodide (PI) staining. Briefly, the cells were blocked with 2 mM thymidine for 18 h, then released with fresh media for 8 h followed by re-blocking with thymidine for another 16 h. Following the second block, the cells were released with or without treatments with the NB compounds and cells were collected and fixed in 70% ethanol at the time points indicated. After alcohol fixation for 2 h, the cells were washed with cold 1XPBS followed by staining with 50 µg/ml PI solution in PBS with addition of 5 µg/ml RNAse A for at least 4 h. The cells were then analyzed by the Flow Cytometry analyzer BD LSR II for percentage of cells in G1/G0, S, and G2/M phases of the cell cycle.

[8] = test system: DT22 breast tumor xenografts; assay: DT22 human breast tumor xenograft growth in NSG mice; assay type: in vivo; settings: for tumor growth: DT22 tumors, NSG mice
Procedure: For examination of the effects of compounds on breast tumor growth suppression, intact female NOD/SCID-gamma (NSG) mice were used as detailed previously.[39] DT-22 breast cancer cells (1 × 10^6 cells/mouse) were injected s.c. into the right axial mammary gland. Mice received s.c. injection or oral gavage daily or every second or third day as indicated, with vehicle or treatment compound, and tumor volume (length × width^2/2) was monitored over time.

MDA-MB-231 cells [9] = assay: Apoptosis by AnnexinV/propidium iodide flow cytometry; assay type: cell-based, human; settings: 1.5 or 3 µM, 24 h or 72 h
Procedure: (§3) The cells were analyzed for percentage of apoptotic cells following 24 h or 72 h of vehicle or compound treatment by staining with the Alexa Fluor® 488 Annexin V/Dead Cell Apoptosis Kit (Thermo Fisher) and flow cytometry according to the manufacturer’s protocol. Caspase activity in the cells after treatment with control vehicle or compounds was determined using the Caspase-Glo 3/7 Assay system (Promega) in a 96-well format following the manufacturer’s instructions. Supplementary Figs 6 and 7 exemplify the gating strategy used for the cell cycle and apoptosis flow cytometry analyses.

[10] = test system: FOXM1 target genes in MDA-MB-231 cells; assay: RNA-Seq Gene Set Enrichment Analysis against FOXM1 target gene sets; assay type: cell-based, human; settings: NB-73 […] 24 h, siFOXM1 25 nM 72 h
Procedure: as §2
The paired-end read data from the HiSeq 4000 were processed and analyzed through a series of steps. […] Reads were trimmed of adapters and low expression data using Trimmomatic version 0.38.[42] The STAR alignment tool version 2.5.3a was used to align the sequenced reads to the GRCh37 human genome from Ensembl.[43] Gene counts were calculated using subread version 1.5.2.[44],[45] […]
Gene Set Enrichment Analysis (GSEA)[48] was used for examination of our genome-wide expression profiles. Overrepresented gene ontology (GO) biological processes were determined by the web-based DAVID Bioinformatics Resources database.[49],[50] […]

[11] = test system: tamoxifen-resistant MCF7 breast cancer cells; assay: Proliferation of tamoxifen-resistant MCF7 cells; assay type: cell-based, human; settings: 6 days, cell numbers
Procedure: resistant MCF7 cells. Cells were treated with NB-73 or trans-hydroxytamoxifen (OH-
Tam) for 6 days and cell numbers were monitored. Values are mean ± SD of three
(1 picture or pasted object on this page, not shown here)

[12] = test system: FOXM1-regulated genes in DT22 tumors; assay: FOXM1-regulated gene expression in xenograft tumors by q-PCR; assay type: in vivo, NSG mice; settings: 10 mg/kg NB-73 s.c., end of treatment
Source text: Primer sequences for the genes studied were obtained from the Harvard Primer Bank. Sequences are available on their website.

Caspase 3/7 activity = assay: Caspase Glo 3/7 assay; assay type: cell-based, human; settings: 1.5 or 3 µM, 24 h
Procedure: as §3

blood levels ([1]; oral, 40 mg/kg): undetectable
blood levels ([1]; s.c., 20 mg/kg): only very low blood levels
Ki (FOXM1 [2]): 143 nM
intracellular level of FOXM1 (FOXM1 [5]): minimally affected
SMILES: Nc1c(C(=O)Nc2ccc(F)cc2)sc2nc(-c3cccs3)cc(C(F)(F)F)c12 [FDI-6, reference compound]
intracellular localization of FOXM1 (FOXM1 [3]): does not change the intracellular localization of FOXM1
genes regulated that overlapped with NB-73 regulated genes (MCF7 cells; MCF7, 9 h, more than 2-fold, FDR < 0.05): 48%
genes regulated more than 2-fold (Venn diagram) (MCF7 cells): 664 genes
expression of ATF3, a gene suppressed by FOXM1 [4]: increased expression of ATF3
expression of FOXM1 stimulated target genes (FOXM1C, AURKB, CCNB1, PLK1) [4]: significantly reduced the expression
potency in cells in culture [6]: potency similar to NB-55

SMILES: C[N+]1(CCCCCCOc2ccc(C(=C3C4CC5CC(C4)CC3C5)c3ccc(OCCCCCC[N+]4(C)CCCCCC4)cc3)cc2)CCCCCC1 [NB-73]
blood levels of compound ([1]; after oral administration): only very low levels
blood levels of compound ([1]; after s.c. injection): very high blood levels
AUC ([1]; oral): 0.015 µM·h
Cmax ([1]; oral): 5.5 nM
half-life ([1]; oral): 40.3 h
AUC ([1]; sc): 158 µM·h
Cmax ([1]; sc): 5300 nM
half-life ([1]; sc): 31.4 h
percent of cells in G2/M (MDA-MB-231 cells [7]): large increase in the percent of cells in G2/M
percent of cells in S phase (MDA-MB-231 cells [7]): decrease in the percent of cells in S phase
genes regulated more than 2-fold (Venn diagram) (MCF7 cells): 870 genes
tumor growth ([8]; 5 mg/kg s.c. daily then every other day from day 21): reduced tumor growth
tumor growth ([8]; 10 mg/kg s.c. daily then every other day from day 21): more markedly suppressed growth
tumor growth ([8]; s.c., 20 mg/kg every other day for 10 days then 10 mg/kg every other day): greatly suppress tumor growth
tumor growth in vivo ([8]; low doses (2–20 mg/kg) s.c. daily or every other day): greatly suppress tumor growth
percent of apoptotic cells (MDA-MB-231 cells [9]): increased the percent of apoptotic cells
normalized enrichment score (NES), FOXM1 target gene set [10]: -1.32
proliferation of tamoxifen-resistant MCF7 cells [11]: effectively suppressed the proliferation
expression of FOXM1-regulated genes in tumors [12]: greatly reduced
expression of ATF3, a gene suppressed by FOXM1 [4]: increased expression of ATF3
expression of FOXM1 stimulated target genes (FOXM1C, AURKB, CCNB1, PLK1) [4]: significantly reduced the expression
caspase 3/7 activity (Caspase 3/7 activity): increased
